Experiment: toxicity in vivo (lethality)
Procedure: The formula I compounds may be administered in any convenient dosage form, with the preferred formulations adapted for oral (PO) or intravenous (IV) administration. Since the water solubility of the compounds exceeds 200 mg/mL, formulations are not anticipated to be difficult to make.

O=S(=O)([O-])CCSSCCS(=O)(=O)[O-].[Na+].[Na+] [Dimesna, Disodium 2,2′-dithiobis ethane sulfonate]
toxicity compared with common table salt: less toxic than common table salt | amount not causing a single death in vivo (IV): exceeding 5000 mg/kg

Reference: patent US7282602B2, “Medicinal disulfide salts” (BioNumerik Pharmaceuticals, Inc., priority 2004, dated 2007)
